Assay results published in patent US9573901B2, “Crystal form of chidamide, preparation method and use thereof” (SHENZHEN CHIPSCREEN BIOSCIENCES, LTD., priority 2012, dated 2017).

Key:
[1] = Stability test at high temperature, high humidity and strong light exposure; assay type: physicochemical; details: high temperature (60° C.), high humidity (90%±5%) and strong light exposure (4500 Lx±500 Lx)
Procedure: The stability of the chidamide crystal form A and the chidamide crystal form B described herein was tested at high temperature (60° C.), high humidity (90%±5%) and strong light exposure (4500 Lx±500 Lx). […] Both the chidamide crystal form A and the chidamide crystal form B are suitable for the manufacturing of drug products and long-term storage. The chidamide crystal form A and the chidamide crystal form B described herein have excellent performance in terms of oral absorption and inhibition of cell differentiation and proliferation. Additionally, both crystal forms have low toxicity and favorable storage and treatment stability, and can be used in the preparation of a medicament for treating cell differentiation and proliferation-related diseases. Thus, the present invention provides the use of the chidamide crystal form A and the chidamide crystal form B in the preparation of a medicament for treating cell differentiation and proliferation-related diseases.

Solubility = assay type: physicochemical

content and total impurity amount after stability test [1]: no significant change | crystal form after stability test [1]: keep the original crystal form
Compound: Nc1cc(F)ccc1NC(=O)c1ccc(CNC(=O)/C=C/c2cccnc2)cc1 [chidamide crystal form A, N-(2-amino-4-fluorophenyl)-4-(N-(3-pyridylacryloyl)aminomethyl)benzamide]
solubility (Solubility): favorable performance in terms of solubility
